Each structure is given as a SMILES string.

The test concerns AMPK. As to the kind of experiment: AMPK activation assay (enzyme-linked immunosorbent assay). Format: cell-based. In short, it runs like this:
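Activator screen performed per well-known kit methods.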
The compound `N#Cc1ccc(CN2CCC(NC(=O)c3cnc(C(=O)N4CCC(C(=O)c5ccc(N6CCCC6)cc5)CC4)cn3)CC2)cc1` [Compound 219, N-(1-(4-cyanobenzyl)piperidin-4-yl)-5-(4-(4-(pyrrolidin-1-yl)benzoyl)piperidine-1-carbonyl)pyrazine-2-carboxamide] registered an EC50 of less than 0.5 µM. `CC(C)Oc1ccc(CN2CCC(NC(=O)c3ccc(C(=O)N4CCC(C(=O)c5ccc(N6CCCC6)cc5)CC4)nc3)CC2)cc1` [Compound 446, N-(1-(4-isopropoxybenzyl)piperidin-4-yl)-6-(4-(4-(pyrrolidin-1-yl)benzoyl)piperidine-1-carbonyl)nicotinamide] gave an EC50 of less than 0.5 µM.

Compound `O=C(NC1CCN(Cc2ccc(OC(F)(F)F)cc2)CC1)c1ccc(C(=O)N2CCC(Oc3ccc(S(F)(F)(F)(F)F)cc3)CC2)nc1` [Compound 494, 6-(4-(4-(pentafluorosulfanyl)phenoxy)piperidine-1-carbonyl)-N-(1-(4-(trifluoromethoxy)benzyl)piperidin-4-yl)nicotinamide] returned an EC50 of less than 0.5 µM. The compound `COc1ccc(OC2CCN(C(=O)c3ccc(C(=O)N[C@H]4CC[C@@H](Oc5ccc(OC)cc5)CC4)nc3)CC2)cc1` [Compound 186, N-((cis)-4-(4-methoxyphenoxy)cyclohexyl)-5-(4-(4-methoxyphenoxy)piperidine-1-carbonyl)picolinamide] yielded a concentration for a half-maximal effect (EC50) of less than 0.5 µM. In turn, `COc1ccc(C(=O)C2CCN(C(=O)c3ccc(C(=O)N[C@@H]4CCN(Cc5ccc(C#N)cc5)C[C@@H]4F)cn3)CC2)cc1` (relative stereo) [Compound 454, N-((cis)-1-(4-cyanobenzyl)-3-fluoropiperidin-4-yl)-6-(4-(4-methoxybenzoyl)piperidine-1-carbonyl)nicotinamide] displayed an EC50 of less than 0.5 µM. `N#Cc1ccc(CN2CCC(NC(=O)c3ccc(C(=O)N4CCN(c5ccc(C(F)(F)F)cc5)CC4)cn3)CC2)cc1` [Compound 339, N-(1-(4-cyanobenzyl)piperidin-4-yl)-5-(4-(4-(trifluoromethyl)phenyl)piperazine-1-carbonyl)picolinamide] had an EC50 of less than 0.5 µM. `CN1CCN(c2ccc(C(=O)C3CCN(C(=O)c4cnc(C(=O)NC5CCN(Cc6ccc(C#N)cc6)CC5)cn4)CC3)cc2)CC1` [Compound 220, N-(1-(4-cyanobenzyl)piperidin-4-yl)-5-(4-(4-(4-methylpiperazin-1-yl)benzoyl)piperidine-1-carbonyl)pyrazine-2-carboxamide] yielded an EC50 of less than 0.5 µM. As for `COc1ccc(C(=O)C2CCN(C(=O)c3ccc(C(=O)NC4CCC(Oc5ccc(C#N)cc5)CC4)cn3)CC2)cc1` (stereo not shown) [Compound 315, N-((1s,4s)-4-(4-cyanophenoxy)cyclohexyl)-6-(4-(4-methoxybenzoyl)piperidine-1-carbonyl)nicotinamide], the 50% effective concentration (EC50) was less than 0.5 µM.

`CC(=O)c1ccc(OC2CCN(C(=O)c3ccc(C(=O)NC4CCN(Cc5ccc(C#N)cc5)CC4)nc3)CC2)cc1` [Compound 358, 5-(4-(4-acetylphenoxy)piperidine-1-carbonyl)-N-(1-(4-cyanobenzyl)piperidin-4-yl)picolinamide] had an EC50 of less than 0.5 µM. As for `COc1ccc(C(=O)C2CCN(C(=O)c3ccc(C(=O)N(C)C4CCN(Cc5ccc(OC(F)(F)F)cc5)CC4)cn3)CC2)cc1` [Compound 483, 6-(4-(4-methoxybenzoyl)piperidine-1-carbonyl)-N-methyl-N-(1-(4-(trifluoromethoxy)benzyl)piperidin-4-yl)nicotinamide], the figure is less than 0.5 µM.

The compound `N#Cc1ccc(CN2CCC(NC(=O)c3ccc(C(=O)N4CCC(Oc5ccc(SC(F)(F)F)cc5)CC4)cn3)CC2)cc1` [Compound 410, N-(1-(4-cyanobenzyl)piperidin-4-yl)-5-(4-(4-(trifluoromethylthio)phenoxy)piperidine-1-carbonyl)picolinamide] gave an EC50 of less than 0.5 µM.

`CC(C)(c1ccc(C#N)cc1)N1CCC(NC(=O)c2ccc(C(=O)N3CCN(Cc4ccc(F)cc4)CC3)cn2)CC1` [Compound 111, N-(1-(2-(4-cyanophenyl)propan-2-yl)piperidin-4-yl)-5-(4-(4-fluorobenzyl)piperazine-1-carbonyl)picolinamide] showed an EC50 of 1 to 5 µM. As for `O=C(Nc1ccc(Br)cc1)c1ccc(C(=O)N2CCN(Cc3ccc(F)cc3)CC2)cn1` [Compound 28, N-(4-bromophenyl)-5-(4-(4-fluorobenzyl)piperazine-1-carbonyl)picolinamide], the figure is 0.5 to 1 µM. `COc1cccc(CN2CCC(NC(=O)c3ccc(C(=O)N4CCC(Oc5ccc(S(C)(=O)=O)cc5)CC4)cn3)CC2)c1` [Compound 241, N-(1-(3-methoxybenzyl)piperidin-4-yl)-5-(4-(4-(methylsulfonyl)phenoxy)piperidine-1-carbonyl)picolinamide] registered an EC50 of less than 0.5 µM. In turn, `N#Cc1ccc(CN2CCC(NC(=O)c3ccc(C(=O)N4CCN(S(=O)(=O)c5ccccc5)CC4)cn3)CC2)cc1` [Compound 82, N-(1-(4-cyanobenzyl)piperidin-4-yl)-5-(4-(phenylsulfonyl)piperazine-1-carbonyl)picolinamide] yielded a concentration giving a half-maximal response (EC50) of 0.5 to 1 µM. Consider `O=C(Nc1ccc(Oc2ccc(F)cc2)nc1)c1ccc(C(=O)N2CCC(Oc3ccc(F)cc3F)CC2)nc1` [Compound 343, 6-(4-(2,4-difluorophenoxy)piperidine-1-carbonyl)-N-(6-(4-fluorophenoxy)pyridin-3-yl)nicotinamide], for which the EC50 is less than 0.5 µM.

In the case of `O=C(NC1CCN(Cc2cc(F)cc(F)c2)CC1)c1ccc(C(=O)N2CCC(Oc3ccc(C(F)(F)F)cc3)CC2)cn1` [Compound 294, N-(1-(3,5-difluorobenzyl)piperidin-4-yl)-5-(4-(4-(trifluoromethyl)phenoxy)piperidine-1-carbonyl)picolinamide], the EC50 was less than 0.5 µM. The figure for `N#Cc1ccc(CN2CCC(NC(=O)c3ccc(C(=O)N4CCC(C(=O)c5cccs5)CC4)cn3)CC2)cc1` [Compound 419, N-(1-(4-cyanobenzyl)piperidin-4-yl)-5-(4-(thiophene-2-carbonyl)piperidine-1-carbonyl)picolinamide] is less than 0.5 µM. With `N#Cc1ccc(CN2CCC(NC(=O)c3ccc(C(=O)N4CCC(F)(C(=O)c5ccc(F)cc5)CC4)cn3)CC2)cc1` [Compound 68, N-(1-(4-cyanobenzyl)piperidin-4-yl)-5-(4-(4-fluoro-4-fluorobenzoyl)piperidine-1-carbonyl)picolinamide], the EC50 is less than 0.5 µM. As for `O=C(Nc1ccc(-c2cccnc2)cc1)c1ccc(C(=O)N2CCN(Cc3ccc(F)cc3)CC2)cn1` [Compound 61, 5-(4-(4-fluorobenzyl)piperazine-1-carbonyl)-N-(4-(pyridine-3-yl)phenyl)picolinamide], the figure is less than 0.5 µM; as for `N#Cc1ccc(CN2CCC(NC(=O)c3ccc(C(=O)N4CCN(c5ccc(C(=O)C(F)(F)F)cc5)CC4)cn3)CC2)cc1` [Compound 263, N-(1-(4-cyanobenzyl)piperidin-4-yl)-5-(4-(4-(2,2,2-trifluoroacetyl)phenyl)piperazine-1-carbonyl)picolinamide], less than 0.5 µM. The figure for `COc1ccc(CC2CCN(C(=O)c3ccc(C(=O)NC4CCN(Cc5ccc(C#N)cc5)CC4)nc3)CC2)cc1F` [Compound 146, N-(1-(4-cyanobenzyl)piperidin-4-yl)-5-(4-(3-fluoro-4-methoxybenzyl)piperidine-1-carbonyl)picolinamide] is less than 0.5 µM.

In turn, `O=C(NC1CCN(Cc2ccc(F)cc2)CC1)c1ccc(C(=O)N2CCC(Oc3ccc(C(F)(F)F)cc3)CC2)cn1` [Compound 179, N-(1-(4-fluorobenzyl)piperidin-4-yl)-5-(4-(4-(trifluoromethyl)phenoxy)piperidine-1-carbonyl)picolinamide] registered an EC50 of less than 0.5 µM.

Consider `O=C(Nc1ccc(-c2cc[nH]c2)cc1)c1ccc(C(=O)N2CCN(Cc3ccc(F)cc3)CC2)cn1` [Compound 39, 5-(4-(4-fluorobenzyl)piperazine-1-carbonyl)-N-(4-(1H-pyrrol-3-yl)phenyl)picolinamide], for which the concentration giving a half-maximal response (EC50) lay within 1 to 5 µM. The compound `N#Cc1ccc(CN2CCC(NC(=O)c3ccc(C(=O)N4CC[C@H](Oc5ccc(F)cc5)C4)cn3)CC2)cc1` [Compound 270, (S)-N-(1-(4-cyanobenzyl)piperidin-4-yl)-5-(3-(4-fluorophenoxy)pyrrolidine-1-carbonyl)picolinamide] displayed an EC50 of less than 0.5 µM. As for `O=C(NC1CCN(Cc2cc(F)cc(F)c2)CC1)c1ccc(C(=O)N2CCC(C(=O)c3ccc(F)c(F)c3)CC2)cn1` [Compound 298, 5-(4-(3,4-difluorobenzoyl)piperidine-1-carbonyl)-N-(1-(3,5-difluorobenzyl)piperidin-4-yl)picolinamide], the figure is less than 0.5 µM. The figure for `N#Cc1ccc(CN2CCC(NC(=O)c3ccc(N4CCC(Oc5ccc(C#N)cc5)CC4)nn3)CC2)cc1` [Compound 351, N-(1-(4-cyanobenzyl)piperidin-4-yl)-6-(4-(4-cyanophenoxy)piperidin-1-yl) pyridazine-3-carboxamide] is less than 0.5 µM; for `CC(=O)c1ccc(OC2CCN(C(=O)c3ccc(C(=O)Nc4ccc(Oc5ccc(F)cc5)nc4)cn3)CC2)cc1` [Compound 395, 6-(4-(4-acetylphenoxy)piperidine-1-carbonyl)-N-(6-(4-fluorophenoxy)pyridin-3-yl)nicotinamide] it is less than 0.5 µM; for `CC(C)N1CCN(C(=O)c2ccc(C(=O)N3CCN(CCc4ccccc4)CC3)nc2)CC1` [Compound 91, (4-isopropylpiperazin-1-yl)(6-(4-phenethylpiperazine-1-carbonyl)pyridin-3-yl)methanone] it is more than 10 µM.

For the compound `O=C(Nc1ccc(Oc2ccc(F)cc2)nc1)c1ccc(C(=O)N2CCC(Oc3ccc(S(=O)(=O)C4CC4)cc3)CC2)nc1` [Compound 247, 6-(4-(4-(cyclopropylsulfonyl)phenoxy)piperidine-1-carbonyl)-N-(6-(4-fluorophenoxy)pyridin-3-yl)nicotinamide], the EC50 is less than 0.5 µM.

As to `N#Cc1ccc(CN2CCC(NC(=O)c3ccc(C(=O)N4CCC(Oc5ccc(S(F)(F)(F)(F)F)cc5)CC4)nc3)CC2)cc1` [Compound 493, N-(1-(4-cyanobenzyl)piperidin-4-yl)-6-(4-(4-(pentafluorosulfanyl)phenoxy)piperidine-1-carbonyl)nicotinamide], the EC50 is less than 0.5 µM.

As usually defined, the EC50 is the concentration at which the effect is half-maximal.

The record behind these values is patent US20150087673A1, “METHODS FOR USING AND BIOMARKERS FOR AMPK-ACTIVATING COMPOUNDS” (RIGEL PHARMACEUTICALS, INC., priority 2013, published 2015).
